Read-outs that look alike come from different tables or passages of the source.
Test system: lung cancer cell line NCI-H82
Experiment: Cell proliferation assay, NCI-H82 (CELL-TITER GLO)
Type: cell-based
Conditions: NCI-H82 cells, 72 h incubation, cell viability by CELL-TITER GLO, top concentration 1 μM, read-out: EC50, Inhibition of NCl-H82 Cell Proliferation
How it was run: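 NCI-H82 cells, 1,000 per well in RPMI1640, were treated after overnight plating with a 3-fold dilution series from 1 μM. Viability read by CellTiter-Glo luminescence after 72 h. EC50 derived from the curves.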

SMILES | EC50 (Homo sapiens, NCI-H82, 72 h) [nM] | EC50 [nM]
C#Cc1nc(NC(=O)N[C@@H](COC(N)=O)c2ccc(-c3ncccc3C3(C#N)CC3)cc2)cs1 [Compound A58, (R)-2-(4-(3-(1-Cyanocyclopropyl)pyridin-2-yl)phenyl)-2-(3-(2-ethynylthiazol-4-yl)ureido)ethyl carbamate] | ≤ 200 | –
C#Cc1nc(NC(=O)N[C@H](c2ccc(-c3cccc4ncsc34)cc2)C(C)(C)O)cs1 [Compound A203, (R)-1-(1-(4-(Benzo[d]thiazol-7-yl)phenyl)-2-hydroxy-2-methylpropyl)-3-(2-ethynylthiazol-4-yl)urea] | ≤ 200 | –
C#Cc1nc(NC(=O)N[C@@H](C(N)=O)c2ccc(-c3cccc(C4(C#N)CC4)c3)cc2)cs1 [Compound A212, (R)-2-(3′-(1-Cyanocyclopropyl)-[1,1′-biphenyl]-4-yl)-2-(3-(2-ethynylthiazol-4-yl)ureido)acetamide] | ≤ 200 | –
C#Cc1nc(NC(=O)N[C@@H](COC(N)=O)c2ccc(-c3ccc(F)cc3C3(C#N)CC3)cn2)cs1 [Compound A76, (R)-2-(5-(2-(1-Cyanocyclopropyl)-4-fluorophenyl)pyridin-2-yl)-2-(3-(2-ethynyl-thiazol-4-yl)ureido)ethyl carbamate] | ≤ 200 | –
C#Cc1nc(NC(=O)N(CC#N)Cc2ccc(-c3cccc4ncsc34)cc2)cs1 [Compound A208, 1-(4-(Benzo[d]thiazol-7-yl)benzyl)-1-(cyanomethyl)-3-(2-ethynylthiazol-4-yl)urea] | ≤ 200 | –
C#Cc1nc(NC(=O)N[C@@H](COC(=O)NC)c2ccc(-c3cccc4ncsc34)cc2)cs1 [Compound A224, (R)-2-(4-(Benzo[d]thiazol-7-yl)phenyl)-2-(3-(2-ethynylthiazol-4-yl)ureido)ethyl methylcarbamate] | ≤ 200 | –
C#Cc1nc(NC(=O)N[C@@H](CO)c2ccc(N3CCCCCC3)cc2)cs1 [Compound A137, (R)-1-(1-(4-(Azepan-1-yl)phenyl)-2-hydroxyethyl)-3-(2-ethynylthiazol-4-yl)urea] | ≤ 200 | –
C#Cc1nc(NC(=O)N[C@@H](CO)C(=O)N2CCC(c3ccccc3C#N)CC2)cs1 [Compound A147, (S)-1-(1-(4-(2-Cyanophenyl)piperidin-1-yl)-3-hydroxy-1-oxopropan-2-yl)-3-(2-ethynylthiazol-4-yl)urea] | 200 to 1000 | –
C#Cc1nc(NC(=O)N[C@@H](CS(=O)(=O)NC)c2ccc(-c3cccc4ncsc34)cc2)cs1 [Compound A199, (R)-2-(4-(Benzo[d]thiazol-7-yl)phenyl)-2-(3-(2-ethynylthiazol-4-yl)ureido)-N-methylethane-1-sulfonamide] | ≤ 200 | –
C#Cc1nc(NC(=O)N[C@H](CO)C(=O)N2CCN(c3ccccc3C#N)CC2)cs1 [Compound A148, (R)-1-(1-(4-(2-Cyanophenyl)piperazin-1-yl)-3-hydroxy-1-oxopropan-2-yl)-3-(2-ethynylthiazol-4-yl)urea] | ≤ 200 | –
C#Cc1nc(NC(=O)N[C@@H](C(=O)NC)c2ccc(-c3cccc(C(=O)CC)c3)cc2)cs1 [Compound A219, (R)-2-(3-(2-Ethynylthiazol-4-yl)ureido)-N-methyl-2-(3′-propionyl-[1,1′-biphenyl]-4-yl)acetamide] | ≤ 200 | –
C#Cc1nc(NC(=O)N[C@@H](COC(N)=O)c2ccc(-c3cccc(N4CCCC4)n3)cc2)cs1 [Compound A234, (R)-2-(3-(2-Ethynylthiazol-4-yl)ureido)-2-(4-(6-(pyrrolidin-1-yl)pyridin-2-yl)-phenyl)ethyl carbamate] | ≤ 200 | –
C#Cc1nc(NC(=O)N[C@@H](COC(N)=O)c2ccc(-c3cccc(C#N)c3)cc2)cs1 [Compound A221, (R)-2-(3′-Cyano-[1,1′-biphenyl]-4-yl)-2-(3-(2-ethynylthiazol-4-yl)ureido)ethyl carbamate] | ≤ 200 | –
C#Cc1nc(NC(=O)N[C@@H](CO)c2ccc(-c3ccccc3C#N)cc2)cs1 [Compound A44, (R)-1-(1-(2′-Cyano-[1,1′-biphenyl]-4-yl)-2-hydroxyethyl)-3-(2-ethynylthiazol-4-yl)urea] | ≤ 200 | –
C#Cc1nc(NC(=O)N[C@@H](CO)c2ccc(-c3ccccc3C3CC3(F)F)cn2)cs1 (stereo partly drawn) [Compound A80, 1-((1R)-1-(5-(2-(2,2-Difluorocyclopropyl)phenyl)pyridin-2-yl)-2-hydroxyethyl)-3-(2-ethynylthiazol-4-yl)urea] | ≤ 200 | –
C#Cc1nc(NC(=O)NCc2ccc(-c3cccc(C4(O)CCC4)c3)cc2)cs1 [Compound A170, 1-(2-Ethynylthiazol-4-yl)-3-((3′-(1-hydroxycyclobutyl)-[1,1′-biphenyl]-4-yl)-methyl)urea] | ≤ 200 | –
C#Cc1nc(NC(=O)N[C@@H](CO)c2ccc(-c3cccnc3N(C)C)c(Cl)c2)cs1 [Compound A100, (R)-1-(1-(3-Chloro-4-(2-(dimethylamino)pyridin-3-yl)phenyl)-2-hydroxyethyl)-3-(2-ethynylthiazol-4-yl)urea] | ≤ 200 | –
C#Cc1nc(NC(=O)N[C@@H](CO)c2ccc(-c3cccc(C4(O)CCC4)c3)cc2)cs1 [Compound A189, (R)-1-(2-Ethynylthiazol-4-yl)-3-(2-hydroxy-1-(3′-(1-hydroxycyclobutyl)-[1,1′-biphenyl]-4-yl)ethyl)urea] | ≤ 200 | –
C#Cc1nc(NC(=O)Nc2ncnc3cc(-c4c(O)cccc4F)ccc23)cs1 [Compound A163, 1-(2-Ethynylthiazol-4-yl)-3-(7-(2-fluoro-6-hydroxyphenyl)quinazolin-4-yl)urea] | ≤ 200 | –
C#Cc1nc(NC(=O)NCc2ccc(-c3cccc4ncsc34)cc2C#N)cs1 [Compound A178, 1-(4-(Benzo[d]thiazol-7-yl)-2-cyanobenzyl)-3-(2-ethynylthiazol-4-yl)urea] | – | ≤ 200

Next, values leading:

EC50 (Homo sapiens, NCI-H82, 72 h) [nM] | EC50 [nM] | SMILES
≤ 200 | – | C#Cc1nc(NC(=O)N[C@@H](CO)c2ccc(-c3ccc(F)cc3C3(C#N)CC3)cn2)cs1 [Compound A75, (R)-1-(1-(5-(2-(1-Cyanocyclopropyl)-4-fluorophenyl)pyridin-2-yl)-2-hydroxy-ethyl)-3-(2-ethynylthiazol-4-yl)urea]
≤ 200 | – | C#Cc1nnc(NC(=O)N[C@@H](CO)c2ccc(-c3cccc4ncsc34)cc2)s1 [Compound A120, (R)-1-(1-(4-(Benzo[d]thiazol-7-yl)phenyl)-2-hydroxyethyl)-3-(5-ethynyl-1,3,4-thiadiazol-2-yl)urea]
≤ 200 | – | C#Cc1nc(NC(=O)N[C@@H](C(=O)NC)c2ccc(-c3cccc(C4(O)CC4)c3)cc2)cs1 [Compound A218, (R)-2-(3-(2-Ethynylthiazol-4-yl)ureido)-2-(3′-(1-hydroxycyclopropyl)-[1,1′-biphenyl]-4-yl)-N-methylacetamide]
≤ 200 | – | C#Cc1nc(NC(=O)NCc2ccc(N3CCC[C@@H]3C#N)cc2)cs1 [Compound A33, (R)-1-(4-(2-Cyanopyrrolidin-1-yl)benzyl)-3-(2-ethynylthiazol-4-yl)urea]
≤ 200 | – | C#Cc1nc(NC(=O)N[C@@H](COC(N)=O)c2ccc(-c3ccc(F)cc3C3CC3(F)F)cn2)cs1 (stereo partly drawn) [Compound A83, (2R)-2-(5-(2-(2,2-Difluorocyclopropyl)-4-fluorophenyl)pyridin-2-yl)-2-(3-(2-ethynylthiazol-4-yl)ureido)ethyl carbamate]
200 to 1000 | – | C#Cc1nnc(NC(=O)N[C@@H](CO)c2ccc(-c3cccc4ccnc(O)c34)cc2)s1 [Compound A108, (R)-1-(5-Ethynyl-1,3,4-thiadiazol-2-yl)-3-(2-hydroxy-1-(4-(1-hydroxyisoquinolin-8-yl)phenyl)ethyl)urea]
≤ 200 | – | C#Cc1nc(NC(=O)N[C@@H](C(=O)NC)c2ccc(-c3cccc4ncsc34)cc2)cs1 [Compound A215, (R)-2-(4-(Benzo[d]thiazol-7-yl)phenyl)-2-(3-(2-ethynylthiazol-4-yl)ureido)-N-methylacetamide]
≤ 200 | – | C#Cc1nc(NC(=O)NC(C(=O)NC)c2ccc(-c3cccc4ncsc34)cc2)cs1 (stereo not shown) [Compound A214, 2-(4-(Benzo[d]thiazol-7-yl)phenyl)-2-(3-(2-ethynylthiazol-4-yl)ureido)-N-methylacetamide]
≤ 200 | – | C#Cc1nc(NC(=O)N[C@@H](COC(N)=O)c2ccc(-c3ccnc(N4CCCC4)c3)cc2)cs1 [Compound A235, (R)-2-(3-(2-Ethynylthiazol-4-yl)ureido)-2-(4-(2-(pyrrolidin-1-yl)pyridin-4-yl)-phenyl)ethyl carbamate]
≤ 200 | – | C#Cc1nnc(NC(=O)N[C@@H](COC(N)=O)c2ccc(-c3ccc(F)cc3C3CC3(F)F)cn2)s1 (stereo partly drawn) [Compound A87, (2R)-2-(5-(2-(2,2-Difluorocyclopropyl)-4-fluorophenyl)pyridin-2-yl)-2-(3-(5-ethynyl-1,3,4-thiadiazol-2-yl)ureido)ethyl carbamate]
≤ 200 | – | C#Cc1nc(NC(=O)N[C@@H](COC(N)=O)c2ccc(-c3cccc4cnccc34)cc2)cs1 [Compound A229, (R)-2-(3-(2-Ethynylthiazol-4-yl)ureido)-2-(4-(isoquinolin-5-yl)phenyl)ethyl carbamate]
≤ 200 | – | C#Cc1nc(NC(=O)N(C)[C@@H](CO)c2ccc(-c3cccc4ncsc34)cc2)cs1 [Compound A111, (R)-1-(1-(4-(Benzo[d]thiazol-7-yl)phenyl)-2-hydroxyethyl)-3-(2-ethynylthiazol-4-yl)-1-methylurea]
≤ 200 | – | C#Cc1nc(NC(=O)N[C@@H](C(=O)NC)c2ccc(-c3cccnc3C3(C#N)CC3)cc2)cs1 [Compound A43, (R)-2-(4-(2-(1-Cyanocyclopropyl)pyridin-3-yl)phenyl)-2-(3-(2-ethynylthiazol-4-yl)ureido)-N-methylacetamide]
200 to 1000 | – | C#Cc1nc(N(C)C(=O)N(C)[C@@H](CO)c2ccc(-c3cccc4ncsc34)cc2)cs1 [Compound A113, (R)-1-(1-(4-(Benzo[d]thiazol-7-yl)phenyl)-2-hydroxyethyl)-3-(2-ethynylthiazol-4-yl)-1,3-dimethylurea]
